Key:
hypertensive rats = assay: Antihypertensive activity - in vivo (hypertensive rats, blood pressure monitored continuously)
Method: The ability of the compounds of this invention to lower blood pressure can be determined in vivo using hypertensive rats according to standard and well known procedures. The test compound is administered intraperitoneally (ip) or orally (po) to rats and the blood pressure monitored continuously. Since DBH is a major enzyme in the synthetic pathway of the catecholamines, it would be expected that the presence of an inhibitor would act to decrease the amount of catecholamines produced, and thereby have an antihypertensive effect.

[1] = target: T1, dopamine β-hydroxylase (DBH) (Bos taurus, UniProt P15101); assay: DBH inhibitory activity - in vitro (time-dependent inactivation; tyramine as substrate, oxygen uptake by polarographic electrode); format: biochemical
T1 sequence (P15101 1-610): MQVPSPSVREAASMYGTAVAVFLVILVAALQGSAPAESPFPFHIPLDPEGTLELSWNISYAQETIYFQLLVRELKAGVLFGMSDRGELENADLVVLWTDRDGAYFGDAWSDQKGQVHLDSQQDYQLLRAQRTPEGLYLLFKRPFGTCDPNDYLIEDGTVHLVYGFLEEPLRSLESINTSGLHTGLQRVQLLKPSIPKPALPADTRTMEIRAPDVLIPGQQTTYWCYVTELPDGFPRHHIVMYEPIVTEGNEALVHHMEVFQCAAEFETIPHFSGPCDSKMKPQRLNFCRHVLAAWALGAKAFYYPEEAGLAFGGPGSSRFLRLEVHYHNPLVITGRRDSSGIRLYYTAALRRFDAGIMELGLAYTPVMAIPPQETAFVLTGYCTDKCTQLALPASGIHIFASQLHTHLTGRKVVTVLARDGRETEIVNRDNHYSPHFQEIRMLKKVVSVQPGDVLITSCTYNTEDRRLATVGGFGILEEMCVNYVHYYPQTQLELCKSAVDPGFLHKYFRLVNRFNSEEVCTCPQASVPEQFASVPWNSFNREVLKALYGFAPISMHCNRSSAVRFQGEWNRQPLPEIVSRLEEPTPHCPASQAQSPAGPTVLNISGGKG
Method: The dopamine β-hydroxylase inhibitory properties of the compounds of this invention can readily be determined by standard and well known procedures such as those procedures set forth in U.S. Pat. No. 4,415,191. For example, determination of whether the DBH inhibition allows time-dependent kinetics is exemplified by the procedure wherein enzymatic oxygenation by DBH is determined in aqueous solution in the presence of molecular oxygen, an electron donor such as ascorbate, and the necessary cofactors for the enzyme at a pH of 5 and a temperature of 20°-40° C., preferrably 37° C. The test compound is added at the desired concentration, and the system is incubated. At different time intervals, aliquots are taken and DBH activity is measured using tyramine as the substrate and the reaction followed by measuring the oxygen uptake using a polarographic electrode and an oxygen monitor by the method of S. May et al., J. Biol. Chem. 256, 2258 (1981). The inhibition constants for the inactivation of DBH by each compound are then determined by conventional procedures such as the method of Kitz and Wilson, J. Biol. Chem. 237, 3245 (1962). When the compound shown in Table I was tested according to the above described procedure, the DBH inhibitory activity increased as a function of the time of incubation. The initial rate of decrease of activity increased with increasing concentration of inhibitor. The results in Table I indicate that β-methylene-2-furanethanamine is potent as illustrated by the rapid rate of inactivation (kinact) and low inhibition contant (KI).

SMILES: C=C(CN)c1ccco1 [β-Methylene-2-Furanethanamine]
- Maximum % Change Mean Blood Pressure (hypertensive rats; 10 mg/kg (ip)): 18%
- Maximum % Change Mean Blood Pressure (hypertensive rats; 30 mg/kg (ip)): 32%
- DBH inhibition, result in words (potency) ([1]; in words, from Table I): potent
- Ki ([1]; inactivation of DBH, Kitz and Wilson method, pH 5, 20°-40° C., preferably 37° C., tyramine substrate): 8 mM
- kinact ([1]; rate of inactivation of DBH, Kitz and Wilson method, pH 5, 20°-40° C., preferably 37° C., tyramine substrate): 6.67e-05 s⁻¹
